The structures appear in SMILES notation.

The results in this text go back to patent US11208400B2, “Substituted 6-(1H-pyrazol-1-yl)pyrimidin-4-amine derivatives and uses thereof” (Bayer Aktiengesellschaft, priority 2016, dated 2021).

The target in the assay is T1, human Npt2a (Homo sapiens, UniProt Q06495).
T1 construct: expressed in transfected cells
T1 sequence (Q06495 1-639): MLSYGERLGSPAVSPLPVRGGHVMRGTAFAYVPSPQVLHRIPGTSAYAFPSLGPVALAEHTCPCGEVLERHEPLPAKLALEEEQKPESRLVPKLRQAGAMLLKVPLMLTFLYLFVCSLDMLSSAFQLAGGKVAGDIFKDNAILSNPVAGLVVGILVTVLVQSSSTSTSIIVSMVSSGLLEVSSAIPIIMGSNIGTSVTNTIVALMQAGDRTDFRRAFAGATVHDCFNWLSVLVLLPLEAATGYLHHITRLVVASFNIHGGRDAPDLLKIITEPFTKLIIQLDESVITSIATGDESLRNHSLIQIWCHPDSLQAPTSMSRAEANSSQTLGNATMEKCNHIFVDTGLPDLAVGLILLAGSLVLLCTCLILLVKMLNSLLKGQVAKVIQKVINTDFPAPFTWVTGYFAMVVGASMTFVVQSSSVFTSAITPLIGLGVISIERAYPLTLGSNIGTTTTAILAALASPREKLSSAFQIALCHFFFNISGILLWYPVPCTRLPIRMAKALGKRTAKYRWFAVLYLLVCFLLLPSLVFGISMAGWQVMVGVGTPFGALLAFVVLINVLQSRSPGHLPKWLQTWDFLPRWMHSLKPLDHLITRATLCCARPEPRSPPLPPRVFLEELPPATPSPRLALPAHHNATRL
Briefly: Npt2a activity cell based assay, membrane potential dye, CHO T-REx hNpt2a cells. Particulars: doxycycline-induced, depolarization by sodium phosphate influx, average or median values if tested more than once. In outline:
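Doxycycline-induced (0.5 μg/mL, 24 h) CHO T-REx cells were loaded with membrane potential dye in sodium-free NHE buffer (pH 7.4) and exposed to compound (50 μM–1 nM, 5 min, room temperature).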
Regarding `Cc1nn(-c2cc(Nc3c(Cl)c(-c4ccc(F)cc4)nn3C)ncn2)c(C)c1Cl` [Example 88, 6-(4-chloro-3,5-dimethyl-1H-pyrazol-1-yl)-N-[4-chloro-3-(4-fluorophenyl)-1-methyl-1H-pyrazol-5-yl]pyrimidin-4-amine], half-maximal inhibition (IC50) required 28.5 nM.
To `Cc1nn(-c2cc(Nc3nn(C)c(-c4ccc(F)cc4)c3Cl)ncn2)c(C)c1Cl` [Example 89, 6-(4-chloro-3,5-dimethyl-1H-pyrazol-1-yl)-N-[4-chloro-5-(4-fluorophenyl)-1-methyl-1H-pyrazol-3-yl]pyrimidin-4-amine] belongs 4.8 nM.
To `Cc1cc(C)n(-c2cc(Nc3c(Cl)c(-c4ccc(F)cc4)nn3C)ncn2)n1` [Example 90, N-[4-chloro-3-(4-fluorophenyl)-1-methyl-1H-pyrazol-5-yl]-6-(3,5-dimethyl-1H-pyrazol-1-yl)pyrimidin-4-amine] belongs 133 nM.
In the case of `Cc1cc(C)n(-c2cc(Nc3nn(C)c(-c4ccc(F)cc4)c3Cl)ncn2)n1` [Example 91, N-[4-chloro-5-(4-fluorophenyl)-1-methyl-1H-pyrazol-3-yl]-6-(3,5-dimethyl-1H-pyrazol-1-yl)pyrimidin-4-amine] it was 5.73 nM; in that of `CCc1c(Nc2cc(-n3nc(C)c(CCO)c3C)ncn2)nn(C)c1-c1ccc(F)cc1` [Example 92, 2-[1-(6-{[4-ethyl-5-(4-fluorophenyl)-1-methyl-1H-pyrazol-3-yl]amino}pyrimidin-4-yl)-3,5-dimethyl-1H-pyrazol-4-yl]ethanol], 820 nM; in that of `Cc1cc(C(F)F)n(-c2cc(Nc3c(C)nn(-c4ccc(F)cc4)c3C)ncn2)n1` [Example 93, 6-[5-(difluoromethyl)-3-methyl-1H-pyrazol-1-yl]-N-[1-(4-fluorophenyl)-3,5-dimethyl-1H-pyrazol-4-yl]pyrimidin-4-amine], 29 nM.
With `CCc1c(Nc2cc(-n3nc(CO)cc3C)ncn2)nn(C)c1-c1ccc(F)cc1` [Example 94, [1-(6-{[4-ethyl-5-(4-fluorophenyl)-1-methyl-1H-pyrazol-3-yl]amino}pyrimidin-4-yl)-5-methyl-1H-pyrazol-3-yl]methanol], the IC50 (usually the point on the concentration scale where inhibition reaches its midpoint) amounted to 2500 nM.
`Cc1cc(C(F)F)n(-c2cc(Nc3nn(C)c(-c4ccc(F)cc4)c3C3CC3)ncn2)n1` [Example 95, N-[4-cyclopropyl-5-(4-fluorophenyl)-1-methyl-1H-pyrazol-3-yl]-6-[5-(difluoromethyl)-3-methyl-1H-pyrazol-1-yl]pyrimidin-4-amine] yielded an IC50 of 63.5 nM.
Consider `Cc1cc(C(F)F)n(-c2cc(Nc3c(C4CC4)c(-c4ccc(F)cc4)nn3C)ncn2)n1` [Example 96, N-[4-cyclopropyl-3-(4-fluorophenyl)-1-methyl-1H-pyrazol-5-yl]-6-[5-(difluoromethyl)-3-methyl-1H-pyrazol-1-yl]pyrimidin-4-amine], for which 110 nM corresponded to half-maximal inhibition (IC50).
Consider `CCc1c(-c2ccc(F)cc2)nn(C)c1Nc1cc(-n2nc(C)c(Cl)c2C)ncn1` [Example 97, 6-(4-chloro-3,5-dimethyl-1H-pyrazol-1-yl)-N-[4-ethyl-3-(4-fluorophenyl)-1-methyl-1H-pyrazol-5-yl]pyrimidin-4-amine], for which the IC50 stood at 75 nM.
To `Cc1cc(C)n(-c2cc(Nc3nn(C)c(-c4ccc(OC(F)(F)F)cc4)c3C)ncn2)n1` [Example 98, 6-(3,5-dimethyl-1H-pyrazol-1-yl)-N-{1,4-dimethyl-5-[4-(trifluoromethoxy)phenyl]-1H-pyrazol-3-yl}pyrimidin-4-amine] belongs 51 nM.
In the case of `CCc1c(Nc2cc(-n3nc(C)c(Cl)c3C)ncn2)nn(C)c1-c1ccc(F)cc1` [Example 99, 6-(4-chloro-3,5-dimethyl-1H-pyrazol-1-yl)-N-[4-ethyl-5-(4-fluorophenyl)-1-methyl-1H-pyrazol-3-yl]pyrimidin-4-amine] it was 50 nM; in that of `Cc1nn(-c2cc(Nc3c(Cl)c(-c4ccc(F)cc4)nn3C)ncn2)c2ccccc12` [Example 100, N-[4-chloro-3-(4-fluorophenyl)-1-methyl-1H-pyrazol-5-yl]-6-(3-methyl-1H-indazol-1-yl)pyrimidin-4-amine], 360 nM.
To `Cc1cc(C)n(-c2cc(Nc3nn(C)c(-c4ccc(C(F)(F)F)cc4)c3C)ncn2)n1` [Example 101, 6-(3,5-dimethyl-1H-pyrazol-1-yl)-N-{1,4-dimethyl-5-[4-(trifluoromethyl)phenyl]-1H-pyrazol-3-yl}pyrimidin-4-amine] belongs 11.5 nM.
For `Cc1nn(-c2ccc(F)cc2)c(C)c1Nc1cc(-n2nc(C)c3ccccc32)ncn1` [Example 102, N-[1-(4-fluorophenyl)-3,5-dimethyl-1H-pyrazol-4-yl]-6-(3-methyl-1H-indazol-1-yl)pyrimidin-4-amine], it took 7.3 nM to reach half-maximal inhibition (IC50).
As for `Cc1nn(-c2ccc(F)cc2)c(C)c1Nc1cc(-n2nc3ccccc3c2C)ncn1` [Example 103, N-[1-(4-fluorophenyl)-3,5-dimethyl-1H-pyrazol-4-yl]-6-(3-methyl-2H-indazol-2-yl)pyrimidin-4-amine], 64 nM corresponded to half-maximal inhibition (IC50).
Compound `CCc1c(Nc2cc(-n3nc(C)cc3CO)ncn2)nn(C)c1-c1ccc(F)cc1` [Example 104, [1-(6-{[4-ethyl-5-(4-fluorophenyl)-1-methyl-1H-pyrazol-3-yl]amino}pyrimidin-4-yl)-3-methyl-1H-pyrazol-5-yl]methanol] returned an IC50 of 150 nM.
In the case of `CCc1c(Nc2cc(-n3nc(C)c(C(=O)N4CCCCC4)c3C)ncn2)nn(C)c1-c1ccc(F)cc1` [Example 105, [1-(6-{[4-ethyl-5-(4-fluorophenyl)-1-methyl-1H-pyrazol-3-yl]amino}pyrimidin-4-yl)-3,5-dimethyl-1H-pyrazol-4-yl](piperidin-1-yl)methanone] it was 235 nM; in that of `CCc1c(Nc2cc(-n3nc(C)c(C#N)c3C)ncn2)n[nH]c1-c1ccc(F)cc1` [Example 108, 1-(6-{[4-ethyl-5-(4-fluorophenyl)-1H-pyrazol-3-yl]amino}pyrimidin-4-yl)-3,5-dimethyl-1H-pyrazole-4-carbonitrile], 94 nM; in that of `Cc1nn(-c2cc(Nc3nn(C)c(-c4ccc(F)cc4)c3C)ncn2)c(C)c1C(C)(C)O` [Example 109, 2-[1-(6-{[5-(4-fluorophenyl)-1,4-dimethyl-1H-pyrazol-3-yl]amino}pyrimidin-4-yl)-3 5-dimethyl-1H-pyrazol-4-yl]propan-2-ol], 50.3 nM.
To `Cc1nn(-c2cc(Nc3nn(C)c(-c4ccc(F)cc4)c3Cl)ncn2)c2ccccc12` [Example 110, N-[4-chloro-5-(4-fluorophenyl)-1-methyl-1H-pyrazol-3-yl]-6-(3-methyl-1H-indazol-1-yl)pyrimidin-4-amine] belongs 22 nM; to `CCc1c(Nc2cc(-n3nc(C)cc3C)ncn2)nn(CCO)c1-c1ccc(F)cc1` [Example 111, 2-[3-{[6-(3,5-dimethyl-1H-pyrazol-1-yl)pyrimidin-4-yl]amino}-4-ethyl-5-(4-fluorophenyl)-1H-pyrazol-1-yl]ethanol], 360 nM.
In the case of `CCc1c(Nc2cc(-n3nc(C)c(C#N)c3C)ncn2)nn(C)c1-c1ccc(F)cc1` [Example 112, 1-(6-{[4-ethyl-5-(4-fluorophenyl)-1-methyl-1H-pyrazol-3-yl]amino}pyrimidin-4-yl)-3,5-dimethyl-1H-pyrazole-4-carbonitrile] it was 59.5 nM; in that of `CC(=O)c1c(C)nn(-c2cc(Nc3nn(C)c(-c4ccc(F)cc4)c3C)ncn2)c1C` [Example 113, 1-[1-(6-{[5-(4-fluorophenyl)-1,4-dimethyl-1H-pyrazol-3-yl]amino}pyrimidin-4-yl)-3,5-dimethyl-1H-pyrazol-4-yl]ethanone], 32 nM.
In turn, `CCc1c(Nc2cc(-n3nc(C)cc3C)ncn2)nn(S(C)(=O)=O)c1-c1ccc(F)cc1` [Example 114, 6-(3,5-dimethyl-1H-pyrazol-1-yl)-N-[4-ethyl-5-(4-fluorophenyl)-1-(methylsulfonyl)-1H-pyrazol-3-yl]pyrimidin-4-amine] displayed a half-maximal inhibitory concentration (IC50) of 290 nM.
To `CCc1c(-c2ccc(F)cc2)nn(CC2CC2)c1Nc1cc(-n2nc(C)c(Cl)c2C)ncn1` [Example 115, 6-(4-chloro-3,5-dimethyl-1H-pyrazol-1-yl)-N-[1-(cyclopropylmethyl)-4-ethyl-3-(4-fluorophenyl)-1H-pyrazol-5-yl]pyrimidin-4-amine] belongs < 1.6 nM.
Consider `Cc1cc(C)n(-c2cc(Nc3c(C)c(-c4ccc(OC(F)(F)F)cc4)nn3C)ncn2)n1` [Example 116, 6-(3,5-dimethyl-1H-pyrazol-1-yl)-N-{1,4-dimethyl-3-[4-(trifluoromethoxy)phenyl]-1H-pyrazol-5-yl}pyrimidin-4-amine], for which the IC50 amounted to 92.5 nM.
In the case of `Cc1nn(-c2cc(Nc3nn(C)c(-c4ccc(OC(F)(F)F)cc4)c3C)ncn2)c(C)c1Cl` [Example 117, 6-(4-chloro-3,5-dimethyl-1H-pyrazol-1-yl)-N-{1,4-dimethyl-5-[4-(trifluoromethoxy)phenyl]-1H-pyrazol-3-yl}pyrimidin-4-amine] it was 19 nM; in that of `Cc1cc(C)n(-c2cc(Nc3nn(C)c(-c4ccc(C#N)cc4)c3C)ncn2)n1` [Example 118, 4-(3-{[6-(3,5-dimethyl-1H-pyrazol-1-yl)pyrimidin-4-yl]amino}-1,4-dimethyl-1H-pyrazol-5-yl)benzonitrile], 7 nM.
